In patent publication EP2141163A1, “Substituted thiazolidinones, their production and utilisation as medicine” (Bayer Schering Pharma Aktiengesellschaft, priority 2008, dated 2010):

What was measured:
MCF-7 = experiment: Proliferation assay (crystal violet staining), MCF-7; assay type: cell-based, human; settings: Homo sapiens, MCF7, comparison with prior art (Tabelle 4), read-out: Inhibition IC50 [M] (MCF-7)
Protocol: (§1) Kultivierte humane Tumorzellen (MCF7, […] menschliche Mammakarzinomazellen, bezogen von ATCC HTB22; NCI-H460, menschliche nicht kleinzellige Lungenkarzinomazellen, ATCC HTB-177; DU 145, hormonunabhängige menschliche Prostatakarzinomazellen, ATCC HTB-81; HeLa-MaTu, humane Cervixkarzinomazellen, bezogen von EPO-GmbH, Berlin,) werden in einer Dichte von 5000 (MCF7, DU145) bzw. 3000 (NCI-H460, HeLa-MaTu) Zellen/Messpunkt in einer 96-Loch Multititerplatte in 200 µl des entsprechenden Wachstumsmediums ausplattiert. Nach 24 Stunden werden die Zellen einer Platte (Nullpunkt-Platte) mit Kristallviolett gefärbt (s.u.), während das Medium der anderen Platten durch frisches Kulturmedium (200 µl), dem die Testsubstanzen in verschiedenen Konzentrationen (0 µM, sowie im Bereich 0,01 - 30 µM; die finale Konzentration des Lösungsmittels Dimethylsulfoxid beträgt 0,5%) zugesetzt sind, ersetzt. Die Zellen werden für 4 Tage in Anwesenheit der Testsubstanzen inkubiert. Die Zellproliferation wird durch Färbung der Zellen mit Kristallviolett bestimmt: Die Zellen werden durch Zugabe von 20 µl/Messpunkt einer 11%igen Glutaraldehyd-Lösung 15 min bei Raumtemperatur fixiert. Nach dreimaligem Waschen der fixierten Zellen mit Wasser werden die Platten bei Raumtemperatur getrocknet. Die Zellen werden durch Zugabe von 100 µl/Messpunkt einer 0,1%igen Kristallviolett-Lösung (pH durch Zugabe von Essigsäure auf pH3 eingestellt) gefärbt. Nach dreimaligem Waschen der gefärbten Zellen mit Wasser werden die Platten bei Raumtemperatur getrocknet. Der Farbstoff wird durch Zugabe von 100 µl/Messpunkt einer 10%igen Essigsäure-Lösung gelöst. Die Extinktion wird photometrisch bei einer Wellenlänge von 595 nm bestimmt. Die prozentuale Änderung des Zellwachstums wird durch Normalisierung der Messwerte auf die Extinktionwerte der Nullpunktplatte (=0%) und die Extinktion der unbehandelten (0 µM) Zellen (=100%) berechnet. IC50-Werte werden nach einer 4-Parameterkurvenanpassung mit Hilfe eines Firmeneigenen Computerprogramms berechnet.

DU145 = experiment: Proliferation assay (crystal violet staining), DU145; assay type: cell-based, human; settings: Homo sapiens, DU-145, comparison with prior art (Tabelle 4), read-out: Inhibition IC50 [M] (DU145)
Protocol: as §1

NCI-H460 = experiment: Proliferation assay (crystal violet staining), NCI-H460; assay type: cell-based, human; settings: Homo sapiens, comparison with prior art (Tabelle 4), read-out: Inhibition IC50 [M] (NCI-H460)
Protocol: as §1

PLK-1 = molecular target: T1, PLK-1 (Homo sapiens, UniProt P53350); experiment: PLK-1 enzyme assay at 10 mM ATP (indirect HTRF assay); assay type: biochemical; settings: comparison with prior art (Tabelle 3), read-out: Inhibition PLK-1 IC50 [M] (10 mM ATP)
T1 construct: Fusionsprotein bestehend aus GST und Plk (Kinase Domäne 33-345; MW 36 kDa, conc 0,8 µg/µl); GST; made in house; host or cells: Hi5 insect cells
Protocol: PLK Enzym-Assay (10 mM ATP)
Für den Kinaseassay wird aus Insektenzellen (Hi5) exprimiertes, durch Glutathion-Sepharose-Affinitätschromatographie und anschließender Gel-filtration (Suerdex 75) gereinigtes rekombinantes Fusionsprotein bestehend aus GST und Plk (Kinase Domäne 33-345; MW 36 kDa, conc 0,8 µg/µl) verwendet. Aliqots hiervon werden in flüssigem Stickstoff weggefroren und bei -80°C gelagert und nach dem Auftauen nur einmal verwendet.
Bei dem verwendeten Assay handelt es sich um einen indirekten HTRF-Assay, bei dem folgende Materialien und Verfahrensweisen zum Einsatz kamen. Als Substrat für die Kinasereaktion wird das biotinylierte Peptid Btn-Ahx-KKLNRTLSFAEPG-Amid x TFA, von Biosyntan, Probennr.: 6178.1 (C-Terminus in Amidform) verwendet. Hierbei handelt es sich um eine artifizielle Sequenz, die von keinem bekannten Protein abgeleitet wurde.
50 nl der in 100% Dimethylsulfoxid (DMSO) gelösten Testverbindungen (Endkonzentrationen : 0 µM und Konzentrationen im Bereich von 0,001 - 20 µM) werden mit 2 µl Enzym Arbeitslösung (0,039 ng/µl Plk-1 im Arbeitspuffer [25 mM MgCl2; 1mM DTT; 50 mM Hepes pH 7,0; 0,01% NP40; 1x Complete; 0,05% BSA] für 30 min vorinkubiert. Anschließend wird die Kinase-Reaktion durch Zugabe von 3 µl Substratlösung [16,7 mM Adenosintriphosphate (ATP) und 1,4 µM Substratpeptid (Biotin-Ttds- KKLNRTLSFAEPG -NH2)] in Arbeitspuffer gestartet, und nach 30 min durch Zugabe einer Abstopp-Lösung (100 mM EDTA, 100 mM Hepes pH 7,5, 800 mM Potassiumfluoride, 0,12% BSA, 0,4 µM SA-XLent (0,05 µM, von CIS bio international, Marcoule, Frankreich), Eu^3+ Cryptate-conjugated Rabbit anti-Mouse IgG (1,5 nM; ein mit Europiumkryptat markierter Anti-Maus-IgG-Antikörper von CIS bio international, Marcoule, Frankreich), 1 nM Anti-phospho-Serine Kinase (ein phospho-spezifischer Antikörper von Upstate Biotechnology, Dundee, Schottland), gestoppt, und bei 4°C über Nacht inkubiert. Danach wird die Menge des phosphorylierten Substratpeptids durch Messung des Resonanzenergietransfers vom Europium-markierten Antikörperkomplex zum Streptavidine-XLent bestimmt. Zu diesem Zweck wird die Fluoreszenzemission bei 620 nm und 665 nm nach Anregung bei 350 nm in einem HTRF-Messgerät, z. B. Rubystar (BMG Labtechnologies, Offenburg, Deutschland) oder Viewlux (Perkin-Elmer), bestimmt. Das Verhältnis der Emissionen bei 665 nm und bei 620 nm wird als Maß für die Menge des phosphorylierten Substratpeptids verwendet. Die Daten werden normalisiert (Enzymreaktion ohne Inhibitor = 0 % Inhibition, alle anderen Assaykomponenten, aber kein Enzym = 100 % Inhibition), und IC50-Werte werden durch einen 4 Parameter-Fit mit einer hauseigenen Software berechnet.

T1 sequence (P53350 33-345): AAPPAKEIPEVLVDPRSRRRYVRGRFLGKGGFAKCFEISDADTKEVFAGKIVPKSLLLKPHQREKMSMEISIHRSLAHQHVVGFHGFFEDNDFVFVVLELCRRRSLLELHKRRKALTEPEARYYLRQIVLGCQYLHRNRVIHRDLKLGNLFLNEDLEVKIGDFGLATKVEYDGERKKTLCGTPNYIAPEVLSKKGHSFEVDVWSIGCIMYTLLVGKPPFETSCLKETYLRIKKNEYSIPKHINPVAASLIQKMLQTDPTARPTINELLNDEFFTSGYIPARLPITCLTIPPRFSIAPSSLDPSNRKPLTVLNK

SMILES: CCn1c(=C(C#N)C(=O)NCC(F)(F)F)sc(=CNc2cccc(CCN3CCCC3)c2)c1=O [Beispiel 30 aus PCT/EP2005/013418, reference compound]
- IC50 (MCF-7): 7e-07 M
- IC50 (DU145): 6e-07 M
- IC50 (NCI-H460): 9e-07 M
- IC50 (PLK-1): 1.1e-07 M
